In patent US8445636B2, “Antimicrobial and anticancer lipopeptides” (Yeda Research & Development Co. Ltd., priority 2003, dated 2013):
Converted amounts (≈) assume the structure as drawn. Where two headings read alike, the source gives them in different places. Non-standard residues stand in square brackets, D forms with d. Residues, ends and D or L forms follow the SMILES beside them. *: point of attachment. Lauroyl = CCCCCCCCCCCC(=O)*

Experiments:
Format in all cases: cell-based
[1] = tested on: Cryptococcus neoformans ATCC MYA-422; experiment: microbe, parasite or virus in culture; details: Cryptococcus neoformans; Table 9, short lipopeptides; pH 7.4; mean of 3 experiments, standard deviation of 25%; read-out: Minimal Inhibitory Concentration, Cyrptococcus neoformans (ATCC MYA-422)
[2] = tested on: Candida albicans ATCC 10231; experiment: microbe, parasite or virus in culture
Method: (§1) The antifungal activity of the lipopeptides was examined in sterile 96-well plates (Nunc F96 microtiter plates) in a final volume of 200 μL as follows: 100 µl of a suspension containing fungi at a concentration of 1×10^4 Colony-Forming Units (CFU)/ml in culture medium (RPMI 1640, 0.165 M MOPS with L-glutamine, without NaHCO3) at pH 7.4 or pH 5.5 (adjustment of the pH was done by diluted solutions of HCl and NaOH) were added to 100 μl of water containing the peptide in serial 2-fold dilutions in water. The fungi were incubated in the presence of the lipopeptides for 24-48 h at 35° C. in a Binder KB115 incubator under agitation. Growth inhibition was determined by measuring the absorbance at 620 nm with a Microplate autoreader E1309 (Bio-Tek Instruments). Antifungal activity is expressed as the minimal inhibitory concentration (MIC), the concentration at which 100% inhibition of fungi growth was observed after the incubation time mentioned above. The fungi used were: Aspergillus niger ATCC 9642, Candida albicans ATCC 10231 and Cryptococcus neoformans ATCC 66031. If not indicated otherwise, the fungi growth was detected at pH 7.4.

[3] = tested on: Cryptococcus neoformans ATCC 66031; experiment: microbe, parasite or virus in culture
Method: as §1

[4] = tested on: Aspergillus fumigatus ATCC 26430; experiment: microbe, parasite or virus in culture
[5] = tested on: Escherichia coli ATCC 25922
Method: (§2) The antibacterial activity of the lipopeptides was examined in sterile 96-well plates (Nunc F96 microtiter plates) in a final volume of 100 μl as follows: Aliquots (50 μl) of a suspension containing bacteria at concentration of 1×10^6 Colony-Forming Units (CFU)/ml in culture LB (Lauria broth) medium (pH 7.4 or pH 5.5) were added to 50 μl of water containing the lipopeptide in serial 2-fold dilutions in water. Adjustment of the pH was done by diluted solutions of HCl and NaOH Inhibition of growth was determined by measuring the absorbance at 600 nm with a Microplate autoreader E1309 (Bio-Tek Instruments), after an incubation time of 18-20 h at 37° C. Antibacterial activities were expressed as the minimal inhibitory concentration (MIC), the concentration at which 100% inhibition of growth was observed after 18-20 h of incubation. The bacteria used were: Escherichia coli ATCC 25922, Acinetobacter baumannii ATCC 19606, Pseudomonas aeruginosa ATCC 27853, Staphylococcus aureus ATCC 6538P, Enterococcus faecalis ATCC 29212, Enterobacter cloacae ATCC 49141. The antibacterial activity of lipopeptides was also examined against resistant bacteria: methicilin-resistant Staphylococcus aureus (MRSA) ATCC 700698 and vancomycin-resistant Enterococcus faecium (VRE) ATCC 700221. If not indicated otherwise, the bacterial growth was detected at pH 7.4.

[6] = tested on: Pseudomonas aeruginosa ATCC 27853
Method: as §2

[7] = tested on: Staphylococcus aureus ATCC 6538P
Method: as §2

[8] = tested on: Acinetobacter baumannii ATCC 19606
Method: as §2

[9] = tested on: E. coli D21

## C[C@@H]1[C@H](O)[C@@H](C)/C=C/C=C/C=C/C=C/C=C/C=C/C=C/[C@H](O[C@@H]2O[C@H](C)[C@@H](O)[C@H](N)[C@@H]2O)C[C@@H]2O[C@](O)(C[C@@H](O)C[C@@H](O)[C@H](O)CC[C@@H](O)C[C@@H](O)CC(=O)O[C@H]1C)C[C@H](O)[C@H]2C(=O)O [Amphotericin, reference compound]
[1]
  MIC: 0.312 µM (≈ 0.288 µg/mL)
[2]; Candida albicans, ATCC10231, Table 9, short lipopeptides, pH 7.4, mean of 3 experiments, standard deviation of 25%, read-out: Minimal Inhibitory Concentration, Candida Albicans (ATCC 10231)
  MIC: 0.625 µM (≈ 0.578 µg/mL)
[2]; Candida albicans, ATCC10231, Table 12, with serum, pH 7.4, read-out: Minimal inhibitory concentrations, C. Albicans With serum
  MIC: 0.78 µM (≈ 0.721 µg/mL)
[2]; Candida albicans, ATCC10231, Table 12, without serum, pH 7.4, read-out: Minimal inhibitory concentrations, C. Albicans Without serum
  MIC: 3.12 µM (≈ 2.89 µg/mL)
[2]; Candida albicans, ATCC10231, Table 13, pH 5.5, with serum, read-out: Minimal inhibitory concentrations, C. Albicans With serum
  MIC: 0.78 µM (≈ 0.721 µg/mL)
[2]; Candida albicans, ATCC10231, Table 13, pH 5.5, without serum, read-out: Minimal inhibitory concentrations, C. Albicans Without serum
  MIC: 9.38 µM (≈ 8.66 µg/mL)
[3]; Cryptococcus neoformans, ATCC66031, Table 12, with serum, pH 7.4, read-out: Minimal inhibitory concentrations, C. Neofor. With serum
  MIC: < 0.78 µM
[3]; Cryptococcus neoformans, ATCC66031, Table 12, without serum, pH 7.4, read-out: Minimal inhibitory concentrations, C. Neofor. Without serum
  MIC: < 0.78 µM
[3]; Cryptococcus neoformans, ATCC66031, Table 13, pH 5.5, with serum, read-out: Minimal inhibitory concentrations, C. Neofor. With serum
  MIC: < 0.78 µM
[3]; Cryptococcus neoformans, ATCC66031, Table 13, pH 5.5, without serum, read-out: Minimal inhibitory concentrations, C. Neofor. Without serum
  MIC: 3.12 µM (≈ 2.89 µg/mL)
[4]; Aspergillus fumigatus, ATCC26430, Table 9, short lipopeptides, pH 7.4, mean of 3 experiments, standard deviation of 25%, read-out: Minimal Inhibitory Concentration, Aspergillus Fomigatus (ATCC 26430)
  MIC: 1.25 µM (≈ 1.16 µg/mL)
[4]; Aspergillus fumigatus, ATCC26430, Table 12, with serum, pH 7.4, read-out: Minimal inhibitory concentrations, A. Fumig. With serum
  MIC: < 0.78 µM
[4]; Aspergillus fumigatus, ATCC26430, Table 12, without serum, pH 7.4, read-out: Minimal inhibitory concentrations, A. Fumig. Without serum
  MIC: 2.34 µM (≈ 2.16 µg/mL)
[4]; Aspergillus fumigatus, ATCC26430, Table 13, pH 5.5, with serum, read-out: Minimal inhibitory concentrations, A. Fumig. With serum
  MIC: < 0.78 µM
[4]; Aspergillus fumigatus, ATCC26430, Table 13, pH 5.5, without serum, read-out: Minimal inhibitory concentrations, A. Fumig. Without serum
  MIC: 3.12 µM (≈ 2.89 µg/mL)

## CCCCCCCCCCCC(=O)N[C@H](CC(C)C)C(=O)N[C@@H](Cc1c[nH]cn1)C(=O)N[C@@H](Cc1c[nH]cn1)C(=O)N[C@H](CC(C)C)C(=O)N[C@H](CC(C)C)C(=O)N[C@@H](Cc1c[nH]cn1)C(=O)N[C@@H](Cc1c[nH]cn1)C(=O)N[C@H](CC(C)C)C(=O)N[C@H](CC(C)C)C(=O)N[C@@H](Cc1c[nH]cn1)C(=O)N[C@@H](Cc1c[nH]cn1)C(=O)N[C@H](CC(C)C)C(N)=O [lipopeptide 26, (CH3-(CH2)10-CO-)-D-Leu-His-His-D-Leu-D-Leu-His-His-D-Leu-D-Leu-His-His-D-Leu-NH2] (Lauroyl-[dL]HH[dL][dL]HH[dL][dL]HH[dL]-NH2)
[5]; Table 6, pH 7.4
  Minimal inhibitory concentrations, E. Coli ATCC 25922: >100 µM
[5]; Table 7, pH 5.5
  Minimal inhibitory concentrations, E. Coli ATCC 25922: >100 µM
[6]; Table 6, pH 7.4
  Minimal inhibitory concentrations, P. Aeruginosa ATCC 27853: >100 µM
[6]; Table 7, pH 5.5
  Minimal inhibitory concentrations, P. Aeruginosa ATCC 27853: 100 µM (≈ 170 µg/mL)
[7]; Table 6, pH 7.4
  Minimal inhibitory concentrations, S. aureus II ATCC 6538P: 100 µM (≈ 170 µg/mL)
[7]; Table 7, pH 5.5
  Minimal inhibitory concentrations, S. aureus II ATCC 6538P: >100 µM
[8]; Table 6, pH 7.4
  Minimal inhibitory concentrations, A. baumannii ATCC 19606: 100 µM (≈ 170 µg/mL)
[8]; Table 7, pH 5.5
  Minimal inhibitory concentrations, A. baumannii ATCC 19606: >100 µM
[2]; Table 12, with serum, pH 7.4, read-out: Minimal inhibitory concentrations, C. Albicans With serum
  MIC: >100 µM
[2]; Table 12, without serum, pH 7.4, read-out: Minimal inhibitory concentrations, C. Albicans Without serum
  MIC: >100 µM
[2]; Table 13, pH 5.5, with serum, read-out: Minimal inhibitory concentrations, C. Albicans With serum
  MIC: >100 µM
[2]; Table 13, pH 5.5, without serum, read-out: Minimal inhibitory concentrations, C. Albicans Without serum
  MIC: 9.375 µM (≈ 15.9 µg/mL)
[3]; Table 12, with serum, pH 7.4, read-out: Minimal inhibitory concentrations, C. Neofor. With serum
  MIC: 100 µM (≈ 170 µg/mL)
[3]; Table 12, without serum, pH 7.4, read-out: Minimal inhibitory concentrations, C. Neofor. Without serum
  MIC: 12.5 µM (≈ 21.3 µg/mL)
[3]; Table 13, pH 5.5, with serum, read-out: Minimal inhibitory concentrations, C. Neofor. With serum
  MIC: 50 µM (≈ 85.1 µg/mL)
[3]; Table 13, pH 5.5, without serum, read-out: Minimal inhibitory concentrations, C. Neofor. Without serum
  MIC: 3.125 µM (≈ 5.32 µg/mL)
[4]; Table 12, with serum, pH 7.4, read-out: Minimal inhibitory concentrations, A. Fumig. With serum
  MIC: 100 µM (≈ 170 µg/mL)
[4]; Table 12, without serum, pH 7.4, read-out: Minimal inhibitory concentrations, A. Fumig. Without serum
  MIC: >100 µM
[4]; Table 13, pH 5.5, with serum, read-out: Minimal inhibitory concentrations, A. Fumig. With serum
  MIC: 100 µM (≈ 170 µg/mL)
[4]; Table 13, pH 5.5, without serum, read-out: Minimal inhibitory concentrations, A. Fumig. Without serum
  MIC: 6.25 µM (≈ 10.6 µg/mL)
[9]; Table 6, pH 7.4
  Minimal inhibitory concentrations, E. Coli D21: >100 µM
[9]; Table 7, pH 5.5
  Minimal inhibitory concentrations, E. Coli D21: 100 µM (≈ 170 µg/mL)

## CCCCCCCCCCCC(=O)N[C@H](CC(C)C)C(=O)N[C@@H](CCCNC(=N)N)C(=O)N[C@@H](Cc1c[nH]cn1)C(=O)N[C@H](CC(C)C)C(=O)N[C@H](CC(C)C)C(=O)N[C@@H](CCCNC(=N)N)C(=O)N[C@@H](Cc1c[nH]cn1)C(=O)N[C@H](CC(C)C)C(=O)N[C@H](CC(C)C)C(=O)N[C@@H](CCCNC(=N)N)C(=O)N[C@@H](Cc1c[nH]cn1)C(=O)N[C@H](CC(C)C)C(N)=O [lipopeptide 27, (CH3-(CH2)10-CO-)-D-Leu-Arg-His-D-Leu-D-Leu-Arg-His-D-Leu-D-Leu-Arg-His-D-Leu-NH2] (Lauroyl-[dL]RH[dL][dL]RH[dL][dL]RH[dL]-NH2)
[5]; ATCC 25922, pH 5.5
  Minimal inhibitory concentrations, E. Coli ATCC 25922: 100 µM (≈ 176 µg/mL)
[5]; ATCC 25922, pH 7.4
  Minimal inhibitory concentrations, E. Coli ATCC 25922: 100 µM (≈ 176 µg/mL)
[6]; ATCC 27853, pH 5.5
  Minimal inhibitory concentrations, P. Aeruginosa ATCC 27853: 100 µM (≈ 176 µg/mL)
[6]; ATCC 27853, pH 7.4
  Minimal inhibitory concentrations, P. Aeruginosa ATCC 27853: 100 µM (≈ 176 µg/mL)
[7]; ATCC 6538, pH 5.5
  Minimal inhibitory concentrations, S. aureus II ATCC 6538P: 100 µM (≈ 176 µg/mL)
[7]; ATCC 6538, pH 7.4
  Minimal inhibitory concentrations, S. aureus II ATCC 6538P: 100 µM (≈ 176 µg/mL)
[8]; ATCC 19606, pH 5.5
  Minimal inhibitory concentrations, A. baumannii ATCC 19606: >100 µM
[8]; ATCC 19606, pH 7.4
  Minimal inhibitory concentrations, A. baumannii ATCC 19606: 100 µM (≈ 176 µg/mL)
[2]; ATCC 10231, pH 5.5, read-out: Minimal inhibitory concentrations, C. Albicans With serum
  MIC: >100 µM
[2]; ATCC 10231, pH 5.5, read-out: Minimal inhibitory concentrations, C. Albicans Without serum
  MIC: 25 µM (≈ 44 µg/mL)
[2]; ATCC 10231, pH 7.4, read-out: Minimal inhibitory concentrations, C. Albicans With serum
  MIC: >100 µM
[2]; ATCC 10231, pH 7.4, read-out: Minimal inhibitory concentrations, C. Albicans Without serum
  MIC: 12.5 µM (≈ 22 µg/mL)
[3]; ATCC 66031, pH 5.5, read-out: Minimal inhibitory concentrations, C. Neofor. With serum
  MIC: 25 µM (≈ 44 µg/mL)
[3]; ATCC 66031, pH 5.5, read-out: Minimal inhibitory concentrations, C. Neofor. Without serum
  MIC: 1.56 µM (≈ 2.74 µg/mL)
[3]; ATCC 66031, pH 7.4, read-out: Minimal inhibitory concentrations, C. Neofor. With serum
  MIC: 25 µM (≈ 44 µg/mL)
[3]; ATCC 66031, pH 7.4, read-out: Minimal inhibitory concentrations, C. Neofor. Without serum
  MIC: 3.125 µM (≈ 5.49 µg/mL)
[4]; ATCC 26430, pH 5.5, read-out: Minimal inhibitory concentrations, A. Fumig. With serum
  MIC: 100 µM (≈ 176 µg/mL)
[4]; ATCC 26430, pH 5.5, read-out: Minimal inhibitory concentrations, A. Fumig. Without serum
  MIC: 6.25 µM (≈ 11 µg/mL)
[4]; ATCC 26430, pH 7.4, read-out: Minimal inhibitory concentrations, A. Fumig. With serum
  MIC: 100 µM (≈ 176 µg/mL)
[4]; ATCC 26430, pH 7.4, read-out: Minimal inhibitory concentrations, A. Fumig. Without serum
  MIC: 25 µM (≈ 44 µg/mL)
[9]; D21, pH 5.5
  Minimal inhibitory concentrations, E. Coli D21: 100 µM (≈ 176 µg/mL)
[9]; D21, pH 7.4
  Minimal inhibitory concentrations, E. Coli D21: 100 µM (≈ 176 µg/mL)
